Legend:
[1] = molecular target: human orexin-2 receptor (Homo sapiens (Human), UniProt O43614); assay: FLIPR Ca2+ flux assay, orexin-2 receptor; type: cell-based; details: CHO cells expressing human orexin-2 receptor; agonist 70 pM Ala-6,12 orexin-A; read-out: hOX2R FLIPR IC50
Description: The utility of the compounds in accordance with the present invention as orexin receptor OX1R and/or OX2R antagonists may be readily determined without undue experimentation by methodology well known in the art, including the “FLIPR Ca^2+ Flux Assay” (Okumura et al., Biochem. Biophys. Res. Comm. 280:976-981, 2001). In a typical experiment the OX1 and OX2 receptor antagonistic activity of the compounds of the present invention was determined in accordance with the following experimental method. For intracellular calcium measurements, Chinese hamster ovary (CHO) cells expressing the rat orexin-1 receptor or the human orexin-2 receptor, are grown in Iscove's modified DMEM containing 2 mM L-glutamine, […], 1% hypoxanthine-thymidine supplement, 100 U/ml penicillin, 100 μg/ml streptomycin and 10% heat-inactivated fetal calf serum (FCS). The cells are seeded at 20,000 cells/well into Becton-Dickinson black 384-well clear bottom sterile plates coated with poly-D-lysine. All reagents were from GIBCO-Invitrogen Corp. The seeded plates are incubated overnight at 37° C. and 5% CO2. Ala-6,12 human orexin-A as the agonist is prepared as a 1 mM stock solution in 1% bovine serum albumin (BSA) and diluted in assay buffer (HBSS containing 20 mM HEPES, 0.1% BSA and 2.5 mM probenecid, pH7.4) for use in the assay at a final concentration of 70 pM. Test compounds are prepared as 10 mM stock solution in DMSO, then diluted in 384-well plates, first in DMSO, then assay buffer. On the day of the assay, cells are washed 3 times with 100 μl assay buffer and then incubated for 60 min (37° C., 5% CO2) in 60 μl assay buffer containing 1 μM Fluo-4AM ester, 0.02% pluronic acid, and 1% BSA. The dye loading solution is then aspirated and cells are washed 3 times with 100 μl assay buffer. 30 μl of that same buffer is left in each well. Within the Fluorescent Imaging Plate Reader (FLIPR, Molecular Devices), test compounds are added to the plate in a volume of 25 μl, incubated for 5 min and finally 25 μl of agonist is added. Fluorescence is measured for each well at 1 second intervals for 5 minutes and the height of each fluorescence peak is compared to the height of the fluorescence peak induced by 70 pM Ala-6,12 orexin-A with buffer in place of antagonist. For each antagonist, IC50 value (the concentration of compound needed to inhibit 50% of the agonist response) is determined. Alternatively, compound potency can be assessed by a radioligand binding assay (described in Bergman et. al. Bioorg. Med. Chem. Lett. 2008, 18, 1425-1430) in which the inhibition constant (Ki) is determined in membranes prepared from CHO cells expressing either the OX1 or OX2 receptor. The intrinsic orexin receptor antagonist activity of a compound which may be used in the present invention may be determined by these assays.

[2] = molecular target: hOX1R (Homo sapiens, UniProt O43613); assay: FLIPR Ca2+ flux assay, orexin-1 receptor; type: cell-based; details: CHO cells expressing orexin-1 receptor; agonist 70 pM Ala-6,12 orexin-A

Sequence of human orexin-2 receptor (O43614 whole entry): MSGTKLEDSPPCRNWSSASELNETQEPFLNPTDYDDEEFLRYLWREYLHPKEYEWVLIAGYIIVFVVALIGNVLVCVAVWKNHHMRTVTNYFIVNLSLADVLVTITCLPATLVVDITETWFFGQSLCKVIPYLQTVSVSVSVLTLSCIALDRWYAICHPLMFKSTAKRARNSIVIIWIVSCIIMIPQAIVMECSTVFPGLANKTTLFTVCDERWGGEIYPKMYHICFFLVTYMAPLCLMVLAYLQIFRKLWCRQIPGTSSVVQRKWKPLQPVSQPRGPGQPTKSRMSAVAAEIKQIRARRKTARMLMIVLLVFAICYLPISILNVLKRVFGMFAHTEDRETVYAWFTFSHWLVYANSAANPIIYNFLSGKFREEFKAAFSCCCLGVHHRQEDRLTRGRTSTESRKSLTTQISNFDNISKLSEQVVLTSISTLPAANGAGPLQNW

Compound | IC50 [1] | IC50 [2]
C[C@@H]1CC[C@@H](Oc2cc(OCC(F)F)ccn2)CN1C(=O)c1ccccc1-n1ncnn1 [Example 29, 4-(2,2-difluoroethoxy)-2-{[(3R,6R)-6-methyl-1-{[2-(2H-tetrazol-2-yl)phenyl]carbonyl}piperidin-3-yl]oxy}pyridine] | 29 nM | 8070 nM
C[C@@H]1CC[C@@H](Oc2cc(OCC(F)(F)F)ccn2)CN1C(=O)c1ccccc1-n1ncnn1 [Example 30, 2-{[(3R,6R)-6-methyl-1-{[2-(2H-tetrazol-2-yl)phenyl]carbonyl}piperidin-3-yl]oxy}-4-(2,2,2-trifluoroethoxy)pyridine] | 38 nM | 10000 nM
C[C@@H]1CC[C@@H](Oc2cc(OCC(F)F)ccn2)CN1C(=O)c1ccccc1CS(C)(=O)=O [Example 31, 4-(2,2-difluoroethoxy)-2-{[(3R,6R)-6-methyl-1-({2-[(methylsulfonyl)methyl]phenyl}carbonyl)piperidin-3-yl]oxy}pyridine] | 34 nM | > 10000 nM
C[C@@H]1CC[C@@H](Oc2cc(OCC(F)F)ccn2)CN1C(=O)c1ccccc1C1(C#N)CC1 [Example 32, 1-(2-{[(2R,5R)-5-{[4-(2,2-difluoroethoxy)pyridin-2-yl]oxy}-2-methylpiperidin-1-yl]carbonyl}phenyl) cyclopropanecarbonitrile] | 24 nM | 4360 nM
C[C@@H]1CC[C@@H](Oc2cc(OCC(F)F)ccn2)CN1C(=O)c1ncccc1-n1nccn1 [Example 33, 2-{[(2R,5R)-5-{[4-(2,2-difluoroethoxy)pyridin-2-yl]oxy}-2-methylpiperidin-1-yl]carbonyl}-3-(2H-1,2,3-triazol-2-yl)pyridine] | 71 nM | > 10000 nM
C[C@@H]1CC[C@@H](Oc2cc(OCC(F)F)ccn2)CN1C(=O)c1cccc(F)c1-n1nccn1 [Example 34, 4-(2,2-difluoroethoxy)-2-{[(3R,6R)-1-{[3-fluoro-2-(2H-1,2,3-triazol-2-yl)phenyl]carbonyl}-6-methylpiperidin-3-yl]oxy}pyridine] | 42 nM | 2140 nM
C[C@@H]1CC[C@@H](Oc2cc(OCC(F)F)ccn2)CN1C(=O)c1ccc(F)cc1-n1nccn1 [Example 35, 4-(2,2-difluoroethoxy)-2-{[(3R,6R)-1-{[4-fluoro-2-(2H-1,2,3-triazol-2-yl)phenyl]carbonyl}-6-methylpiperidin-3-yl]oxy}pyridine] | 62 nM | 3270 nM
C[C@@H]1CC[C@@H](Oc2cc(OCC(F)F)ccn2)CN1C(=O)c1c(F)cccc1-n1nccn1 [Example 36, 4-(2,2-difluoroethoxy)-2-{[(3R,6R)-1-{[2-fluoro-6-(2H-1,2,3-triazol-2-yl)phenyl]carbonyl}-6-methylpiperidin-3-yl]oxy}pyridine] | 56 nM | 2970 nM
Cc1noc(-c2ccccc2C(=O)N2C[C@H](Oc3cc(OCC(F)F)ccn3)CC[C@H]2C)n1 [Example 37, 4-(2,2-difluoroethoxy)-2-{[(3R,6R)-6-methyl-1-{[2-(3-methyl-1,2,4-oxadiazol-5-yl)phenyl]carbonyl}piperidin-3-yl]oxy}pyridine] | 52 nM | 2720 nM
Cc1nc(-c2ccccc2C(=O)N2C[C@H](Oc3cc(OCC(F)F)ccn3)CC[C@H]2C)no1 [Example 38, 4-(2,2-difluoroethoxy)-2-{[(3R,6R)-6-methyl-1-{[2-(5-methyl-1,2,4-oxadiazol-3-yl)phenyl]carbonyl}piperidin-3-yl]oxy}pyridine] | 56 nM | 2500 nM
C[C@@H]1CC[C@@H](Oc2cc(OC3CC3)ccn2)CN1C(=O)c1ccccc1-n1nccn1 [Example 40, 4-(Cyclopropyloxy)-2-{[(3R,6R)-6-methyl-1-{[2-(2H-1,2,3-triazol-2-yl)phenyl]carbonyl}-piperidin-3-yl]oxy}pyridine] | 15.2 nM | 581 nM
CC(C)COc1ccnc(O[C@@H]2CC[C@@H](C)N(C(=O)c3ccccc3-n3nccn3)C2)c1 [Example 42, 4-(2-methylpropoxy)-2-{[(3R,6R)-6-methyl-1-{[2-(2H-1,2,3-triazol-2-yl)phenyl]carbonyl}piperidin-3-yl]oxy}pyridine] | 134 nM | 5610 nM
CCCOc1ccnc(O[C@@H]2CC[C@@H](C)N(C(=O)c3ccccc3-n3nccn3)C2)c1 [Example 43, 2-{[(3R,6R)-6-methyl-1-{[2-(2H-1,2,3-triazol-2-yl)phenyl]carbonyl}piperidin-3-yl]oxy}-4-propoxypyridine] | 38.7 nM | 2490 nM
CC(C)Oc1ccnc(O[C@@H]2CC[C@@H](C)N(C(=O)c3ccccc3-c3ncccn3)C2)c1 [Example 44, 2-(2-{[(2R,5R)-2-Methyl-5-{[4-(1-methylethoxy)pyridin-2-yl]oxy}piperidin-1-yl]carbonyl}phenyl)pyrimidine] | 67 nM | 1640 nM
C[C@@H]1CC[C@@H](Oc2cc(OCC(F)F)ccn2)CN1C(=O)c1ccccc1-c1ncccn1 [Example 45, 2-(2-{[(2R,5R)-5-{[4-(2,2-difluoroethoxy)pyridin-2-yl]oxy}-2-methylpiperidin-1-yl]carbonyl}phenyl) pyrimidine] | 33 nM | 2940 nM
C[C@@H]1CC[C@@H](Oc2cc(OCC(F)F)ccn2)CN1C(=O)c1ccc(F)cc1-c1ncccn1 [Example 46, 2-(2-{[(2R,5R)-5-{[4-(2,2-difluoroethoxy)pyridin-2-yl]oxy}-2-methylpiperidin-1-yl]carbonyl}-5-fluorophenyl)pyrimidine] | 63 nM | 3520 nM
C[C@@H]1CC[C@@H](Oc2cc(OCC(F)F)ccn2)CN1C(=O)c1ncccc1-c1ncccn1 [Example 47, 2-(2-{[(2R,5R)-5-{[4-(2,2-difluoroethoxy)pyridin-2-yl]oxy}-2-methylpiperidin-1-yl]carbonyl}pyridin-3-yl)pyrimidine] | 84 nM | 9270 nM
COc1ccnc(O[C@@H]2CC[C@@H](C)N(C(=O)c3ccccc3-n3nccn3)C2)c1C [Example 48, 4-Methoxy-3-methyl-2-{[(3R,6R)-6-methyl-1-{[2-(2H-1,2,3-triazol-2-yl)phenyl]carbonyl}piperidin-3-yl]oxy}pyridine] | 9.7 nM | 568 nM
COc1ccnc(O[C@@H]2CC[C@@H](C)N(C(=O)c3ccccc3-n3nccn3)C2)c1F [Example 49, 3-Fluoro-4-methoxy-2-{[(3R,6R)-6-methyl-1-{[2-(2H-1,2,3-triazol-2-yl)phenyl]carbonyl}piperidin-3-yl]oxy}pyridine] | 71 nM | 10000 nM
COc1ccnc(O[C@@H]2CC[C@@H](C)N(C(=O)c3ccccc3-n3nccn3)C2)c1C=O [Example 50, 4-Methoxy-2-{[(3R,6R)-6-methyl-1-{[2-(2H-1,2,3-triazol-2-yl)phenyl]carbonyl}piperidin-3-yl]oxy}pyridine-3-carbaldehyde] | 37.5 nM | 6750 nM
COc1ccnc(O[C@@H]2CC[C@@H](C)N(C(=O)c3ccccc3-n3nccn3)C2)c1C(C)=O [Example 51, 1-(4-methoxy-2-{[(3R,6R)-6-methyl-1-{[2-(2H-1,2,3-triazol-2-yl)phenyl]carbonyl}piperidin-3-yl]oxy}pyridin-3-yl)ethanone] | 12.3 nM | 976 nM
C[C@@H]1CC[C@@H](Oc2cc(OC(F)F)ccn2)CN1C(=O)c1ccccc1-n1nccn1 [Example 52, (2-(2H-1,2,3-Triazol-2-yl)phenyl)((2R,5R)-5-((4-(difluoromethoxy)pyridin-2-yl)oxy)-2-methylpiperidin-1-yl)methanone] | 4 nM | 194 nM
C[C@@H]1CC[C@@H](Oc2cc(OCF)ccn2)CN1C(=O)c1ccccc1-n1nccn1 [Example 53, (2-(2H-1,2,3-Triazol-2-yl)phenyl)((2R,5R)-5-((4-(fluoromethoxy)pyridin-2-yl)oxy)-2-methylpiperidin-1-yl)methanone] | 8 nM | 490 nM
C[C@@H]1CC[C@@H](Oc2cc(OC(F)F)ccn2)CN1C(=O)c1ccsc1-n1nccn1 [Example 54, (2-(2H-1,2,3-Triazol-2-yl)thiophen-3-yl)((2R,5R)-5-((4-(difluoromethoxy)pyridin-2-yl)oxy)-2-methylpiperidin-1-yl)methanone] | 11 nM | 1020 nM

— US9745284B2, “2-pyridyloxy-4-ether orexin receptor antagonists” (MERCK SHARP & DOHME CORP., priority 2013, dated 2017)
